Results reported in patent US20240228543A1, “CYCLIC PEPTIDE INHIBITORS OF USP22” (THE JOHNS HOPKINS UNIVERSITY, priority 2021, published 2024).
Where “and” joins values, the source holds several entries; their conditions need not be identical. Equal values may be shown once. Positions of bridges follow the written chain, without caps; N, C: chain ends. Non-standard residues stand in square brackets, D forms with d. Residues, ends and D or L forms follow the SMILES beside them.

Tests used:
Format in all cases: biochemical
[1] = target: T1, human DUB module (hDUBm; USP22, ATXN7, ATXN7L3, ENY2) (Homo sapiens, UniProt Q9UPT9); experiment: Ub-AMC deubiquitination assay, human DUB module; details: Ki (apparent, Morrison approximation), Ub-AMC cleavage, 200 nM DUB, 1 μM Ub-AMC
T1 construct: 6xHis (TEV-cleavable) (N, cleaved yes); made in house; host or cells: High Five insect cells (baculovirus, Bac2Bac; virus amplified in Sf9)
Protocol: FIG. 2A is a graph of initial rates of Ub-AMC cleavage by hDUB module as a function of substrate concentration. […] FIGS. 2B-2G are graphs of each cyclic peptide, as indicated, tested for its ability to inhibit Ub-AMC cleavage in the presence of increasing amounts of the peptide into a reaction with a fixed amount of DUB (200 nM) and Ub-AMC (1 μM). Ki values were determined for each curve using the Morrison Ki approximation.
Ub-AMC deubiquitination assay A working stock mixture of either yDUBm or hDUBm was prepared in the presence of either DMSO (mock) or a dilution series of the cyclic peptide. […] Each enzyme:peptide mixture was incubated for 30 min at 30° C. in the case of yDUBm, and 37° C. in the case of hDUBm, with each enzyme complex at 1.033× the desired concentration (207 nM). The enzyme:peptide mixture ([…]) was added to 1 μL of 30 μM U b-AMC (7-amino-4-methylcoumarin) (Boston Biochem), for a final concentration of 200 nM DUBm, the indicated cyclic peptide concentration, and 1 μM Ub-AMC. DUB activity was measured by observing the increase in AMC fluorescence in a plate reader, and the initial rate of fluorescence increase was calculated and plotted as a function of inhibitor concentration (FIGS. 2B-2I). The Ki values were determined using the Morrison approximation of enzyme inhibition equilibria within Prism (Graphpad).
The cyclic peptides that constituted potential inhibitors were chemically synthesized by solid phase peptide synthesis and tested for their effectiveness and specificity as inhibitors in vitro. Since the enzyme kinetics of the human DUB module had not previously been characterized, hDUBm activity was assayed using the fluorogenic substrate, ubiquitin-amino methyl coumarin (Ub-AMC) (FIG. 2A).

USP51/ATXN7L3/ENY2 = target: T2, USP51/ATXN7L3/ENY2 (Homo sapiens, UniProt Q70EK9); experiment: Inhibition of H2B DUB complexes, Ub-AMC cleavage: USP51 complex; details: 1000 nM complex, 5 μM Ub-AMC
T2 construct: made in house
T2 sequence (Q70EK9 1-711): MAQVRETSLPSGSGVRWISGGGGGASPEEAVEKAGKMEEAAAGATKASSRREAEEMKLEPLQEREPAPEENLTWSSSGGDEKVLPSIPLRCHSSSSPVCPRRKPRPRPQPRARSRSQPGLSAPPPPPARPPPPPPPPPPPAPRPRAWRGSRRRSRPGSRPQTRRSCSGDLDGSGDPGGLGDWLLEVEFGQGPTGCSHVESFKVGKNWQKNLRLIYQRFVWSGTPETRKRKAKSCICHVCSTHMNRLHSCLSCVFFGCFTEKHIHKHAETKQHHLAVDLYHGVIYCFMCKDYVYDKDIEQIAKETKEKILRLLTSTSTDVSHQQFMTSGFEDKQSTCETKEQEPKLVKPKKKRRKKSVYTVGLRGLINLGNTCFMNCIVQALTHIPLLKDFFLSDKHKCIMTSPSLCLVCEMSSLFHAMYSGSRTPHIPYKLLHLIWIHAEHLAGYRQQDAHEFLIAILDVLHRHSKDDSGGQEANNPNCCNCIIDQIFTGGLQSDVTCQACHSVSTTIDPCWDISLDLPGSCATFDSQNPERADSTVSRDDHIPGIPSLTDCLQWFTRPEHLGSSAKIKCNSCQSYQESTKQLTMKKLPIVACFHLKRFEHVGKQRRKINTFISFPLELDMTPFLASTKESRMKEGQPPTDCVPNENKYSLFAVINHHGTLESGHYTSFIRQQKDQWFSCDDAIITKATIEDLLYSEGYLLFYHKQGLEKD
T2 sequence (Q14CW9 1-347 partner): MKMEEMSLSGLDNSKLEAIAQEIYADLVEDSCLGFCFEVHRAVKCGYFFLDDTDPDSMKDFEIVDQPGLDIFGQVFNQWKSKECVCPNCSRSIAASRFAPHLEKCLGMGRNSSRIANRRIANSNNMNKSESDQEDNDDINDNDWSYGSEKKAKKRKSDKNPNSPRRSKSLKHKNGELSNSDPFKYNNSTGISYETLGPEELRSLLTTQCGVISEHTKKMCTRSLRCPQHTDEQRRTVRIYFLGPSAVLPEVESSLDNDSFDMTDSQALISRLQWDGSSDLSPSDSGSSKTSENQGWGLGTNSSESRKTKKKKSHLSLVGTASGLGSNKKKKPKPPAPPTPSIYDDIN
T2 sequence (Q9NPA8 1-101 partner): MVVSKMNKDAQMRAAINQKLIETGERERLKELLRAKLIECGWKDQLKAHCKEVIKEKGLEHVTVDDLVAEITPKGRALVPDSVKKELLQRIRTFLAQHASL
Protocol: (§1) Cleavage rates of 5 μM Ub-AMC were assayed for 75 nM USP22/ATXN7L3/ENY2/ATXN7 (hDUBm), 100 nM USP27x/ATXN7L3/ENY2, or 1000 nM USP51/ATXN7L3/ENY2. Rates were normalized to the uninhibited reaction in each case to determine the fraction of apparent activity.
(§2) DUB specificity assays Ubiquitin-rhodamine(110)-glycine cleavage rates were measured for all DUBs available in the DUBprofiler™ panel with two independent replicates (44 in total; Ubiquigent). […] USP22 was not included in the panel, and is not represented in FIG. 12A. […] Initial cleavage rates of each complex were measured on a fixed concentration of 5 μM Ub-AMC.
(§3) Heterotrimeric complexes containing USP27x and USP51 were purified, respectively, in complex with ENY2 and ATXN7L3. The activity of these complexes on Ub-AMC was compared to that of the human DUBm, which contains USP22, ENY2, ATXN7L3, and a fourth subunit, ATXN7, that anchors the DUBm to the rest of the SAGA complex.

USP27x/ATXN7L3/ENY2 = target: T3, USP27x/ATXN7L3/ENY2 (Homo sapiens, UniProt A6NNY8); experiment: Inhibition of H2B DUB complexes, Ub-AMC cleavage: USP27x complex; details: 100 nM complex, 5 μM Ub-AMC
T3 construct: made in house
T3 sequence (A6NNY8 1-438): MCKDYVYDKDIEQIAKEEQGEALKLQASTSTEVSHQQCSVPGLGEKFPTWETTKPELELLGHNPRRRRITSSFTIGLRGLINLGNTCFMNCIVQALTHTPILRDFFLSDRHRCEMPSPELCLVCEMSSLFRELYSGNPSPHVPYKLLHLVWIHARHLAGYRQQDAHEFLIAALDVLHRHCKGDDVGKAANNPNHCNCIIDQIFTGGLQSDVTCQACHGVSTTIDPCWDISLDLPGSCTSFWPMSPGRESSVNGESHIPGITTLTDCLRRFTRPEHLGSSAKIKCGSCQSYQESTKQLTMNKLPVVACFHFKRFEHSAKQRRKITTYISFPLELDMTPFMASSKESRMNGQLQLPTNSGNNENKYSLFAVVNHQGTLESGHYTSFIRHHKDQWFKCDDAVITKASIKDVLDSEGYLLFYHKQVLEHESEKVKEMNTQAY
T3 sequence (Q14CW9 1-347 partner): T2 sequence (Q14CW9 1-347 partner)
T3 sequence (Q9NPA8 1-101 partner): T2 sequence (Q9NPA8 1-101 partner)
Protocol: as §1, §2, §3

T1 sequence (Q9UPT9 whole entry, one chain of several): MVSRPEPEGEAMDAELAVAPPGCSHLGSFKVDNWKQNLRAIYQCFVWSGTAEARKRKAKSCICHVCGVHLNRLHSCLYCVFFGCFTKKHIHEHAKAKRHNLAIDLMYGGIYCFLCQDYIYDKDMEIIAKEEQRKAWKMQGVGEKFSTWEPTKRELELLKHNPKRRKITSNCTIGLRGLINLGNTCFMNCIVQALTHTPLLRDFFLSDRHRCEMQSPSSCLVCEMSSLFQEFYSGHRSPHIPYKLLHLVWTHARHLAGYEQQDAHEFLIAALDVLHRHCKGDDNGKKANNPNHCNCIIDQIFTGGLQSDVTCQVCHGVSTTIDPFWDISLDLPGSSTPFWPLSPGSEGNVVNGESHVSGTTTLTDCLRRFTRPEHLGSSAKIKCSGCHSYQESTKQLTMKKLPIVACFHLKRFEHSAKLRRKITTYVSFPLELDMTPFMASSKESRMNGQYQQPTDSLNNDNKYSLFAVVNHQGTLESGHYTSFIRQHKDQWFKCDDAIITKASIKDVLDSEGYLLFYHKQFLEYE
T1 sequence (O15265 3-151 partner limits assumed, one chain of several): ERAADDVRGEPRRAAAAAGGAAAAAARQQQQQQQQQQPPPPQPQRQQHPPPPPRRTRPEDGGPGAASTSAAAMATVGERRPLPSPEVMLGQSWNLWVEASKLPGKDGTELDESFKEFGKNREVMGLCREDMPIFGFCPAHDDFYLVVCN

SMILES: CC[C@H](C)[C@@H]1NC(=O)[C@H](C)NC(=O)[C@@H](Cc2ccc(O)cc2)NC(=O)CSC[C@@H](C(N)=O)NC(=O)[C@H](CC(C)C)NC(=O)[C@H](CC(C)C)NC(=O)[C@H]([C@@H](C)O)NC(=O)[C@H]([C@@H](C)O)NC(=O)[C@H](CCCCN)NC(=O)CNC(=O)[C@H](CCCNC(=N)N)NC(=O)[C@H](Cc2ccc(O)cc2)NC(=O)[C@H](CO)NC1=O [hD1] ({CH2CO}-[dY]AISYRGKTTLLC-NH2; thioether N-13)
- Ki [1]: < 100 nM and 20.6 nM
- IC50 (USP51/ATXN7L3/ENY2): > 250000 nM
- IC50 (USP27x/ATXN7L3/ENY2): 3000 nM
